Here are results for seven substances from PMC13099375 (Nature biomedical engineering, 2025).

Where “and” joins values, the source holds several entries; their conditions need not be identical. Equal entries are not always repeated. Bridges are numbered along the chain shown (N, C = ends). Where no end group is shown, it is not given here. [ ]: non-standard residue; d: D form. Lys(N3) = [N-]=[N+]=NCCCC[C@H](N)C(=O)O

Series [1] has as its system primary mouse B cells (mouse CD19). Description: FMC63 IgG binding to primary mouse B cells by flow cytometry (EDF7D).
The test system of series [2] is FMC63^scFv. Description: Retention of prebound biotin-FMC63 scFv on yeast clones under competition with FMC63 IgG (Fig 3I). In kind it is binding. The settings on record: pre-stained with 50nM Biotin-FMC63^scFv, then 1μM FMC63^IgG.
Series [3] deals with FMC63^scFv binding to CD19^+ NALM6 cells. Description: FMC63 scFv staining of NALM6 cells after pre-incubation with mimotope (Fig 4E). Details: species or system human. Particulars: scFv pre-blocked with mimotope.
Series [4] deals with FMC63^IgG binding to CD19^+ NALM6 cells. Description: FMC63 IgG staining of NALM6 cells in the presence of mimotope (Fig 4E). Details: species or system human.
Series [5] relates to CD19-CAR Jurkat T cells. Description: CD69 expression on mimotope-pre-incubated CD19-CAR Jurkat T cells co-cultured with NALM6 (Fig 4F). It counts as cell-based, human. The settings on record: 1:1 E:T, 16 hours.
Series [6] concerns FMC63^IgG. The series can be described thus: ELISA of FMC63 IgG binding to plate-bound synthetic mimotopes (Fig 2F, 3F). Particulars: peptide pre-treated with DTT. For orientation: In an ELISA, binding on a coated surface is turned into a signal by an enzyme label.
The test system of series [7] is FMC63^IgG. The series can be described thus: Flow cytometry of FMC63 IgG binding to mimotope yeast clones (Fig 2E, 3B, 3D, 3E).
Target sequence in this assay (as listed by the source): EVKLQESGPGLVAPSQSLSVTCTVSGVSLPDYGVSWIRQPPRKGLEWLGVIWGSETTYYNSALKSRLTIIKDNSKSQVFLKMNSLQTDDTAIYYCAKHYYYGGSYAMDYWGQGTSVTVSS
Target sequence in this assay (as listed by the source): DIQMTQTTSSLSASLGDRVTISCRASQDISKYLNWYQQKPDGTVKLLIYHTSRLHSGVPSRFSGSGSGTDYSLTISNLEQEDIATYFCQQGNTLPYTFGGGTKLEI
In series [8] the test system is FMC63-mCAR-T cells. Description: CTV dilution of FMC63-mCAR-T cells in LNs after amph-mimotope vaccination (Fig 5D). In kind it is in vivo, C57BL/6 mice. Particulars: 10 nmol amph-peptide + 25μg CDG, 48 hours after vaccination, n=3.
Series [9] concerns FMC63^scFv. Description: FMC63 scFv binding to K562 cells labeled with amph-mimotopes (Fig 3J). Particulars: read-out: Kd^scFv (apparent); K562 labeled with 500 nM amph-mimotope, fluorescent FMC63^scFv, flow cytometry. A general note: Flow cytometry measures light scatter and fluorescence of single cells or particles in a stream.
Target sequence in this assay (as listed by the source): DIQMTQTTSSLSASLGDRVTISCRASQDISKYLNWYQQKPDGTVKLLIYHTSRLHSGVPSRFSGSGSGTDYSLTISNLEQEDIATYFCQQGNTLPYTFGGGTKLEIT
The subject of series [10] is CD19 CAR-T cells. Description: IFN-γ ELISA, human CD19 CAR-T co-cultured with amph-mimotope-labeled K562 cells (Fig 2H). It counts as cell-based. Particulars: 6 hr.
The subject of series [11] is EGFRvIII-CAR-T cells. The series can be described thus: IFN-γ ELISA, control EGFRvIII-CAR-T co-cultured with amph-labeled K562 cells (Fig 2I). In kind it is cell-based.
Series [12] deals with FMC63-mCAR-T cells. Description: IFN-γ ELISA, FMC63-mCAR-T co-cultured with amph-mimotope-labeled K562 cells (Fig 5B). In kind it is cell-based, mouse.
A short description of series [13]: Clinical data, pediatric B-ALL: CAR-T expansion by qPCR and B cell aplasia (Fig 1A-D). In kind it is in vivo, human. Particulars: for probability of continued B-cell aplasia: at 6 months. (In qPCR the cycle at which signal appears reflects the starting amount.)
Series [14] is described as follows: Clinical data, adult B-ALL: peak CAR-T expansion by qPCR (EDF2A). In kind it is in vivo, human. Particulars: adult relapsed/refractory ALL.
Series [15] in a line: Clinical data, adult B-cell lymphoma: peak CAR-T expansion by qPCR (EDF2B). It counts as in vivo, human. The settings on record: relapsed/refractory B-NHL.

As for “FMC63 IgG: recombinant FMC63 (anti-human CD19) expressed as a full-length IgG”, the “binding to WT B cells expressing mouse CD19 (in words)” value in [1] is “minimal binding”.
“PRKHSGRICPWNCKELDNPPFIFGNR (disulfide) [F12-A1]”: the “time FMC63^scFv remained bound on yeast surface in the presence of excess soluble FMC63^IgG” value in series [2] is recorded as “over 24 hours”. Moreover, the “mimotope concentration at which FMC63^scFv binding to NALM6 cells is compromised / abolished” value in series [3] is given as “greater than 1 μM”. Also, the “mimotope concentration at which FMC63^IgG binding to CD19 is abolished” value in series [4] was over 10 µM. In addition, in series [5], the “CD69 induction on FMC63 CAR Jurkat cells stimulated with NALM6 after pre-blocking with mimotope” value is “not affected”.
For the substance RHCPWNCSLL (disulfide) [P1], in [6], the “FMC63^IgG binding to DTT-treated peptide” value is given as “completely ablated”. The “binding of yeast clone at 20 nM biotinylated FMC63^IgG” value in series [7] (flow cytometry) was “no detectable binding”. The “FMC63^IgG binding to yeast clone under mild reductive conditions” value in series [7] (yeast treated with 0.1mM, 1mM DTT, 500 nM biotin-FMC63^IgG) is given as “eliminated FMC63^IgG binding”.
Regarding “amph-F12: amphiphile (DSPE-PEG2k) conjugate of F12 ({DSPE‑PEG2k‑DBCO-azido lysine}-RICPWNCKEL; disulfide 3-7 (inferred))”, the “CAR-T cell proliferation (CTV dilution) in LNs (in words)” value in [8] is “limited proliferation”.
For “amph-P1: P1 with N-terminal azide conjugated to DSPE-PEG2k-DBCO ({DSPE‑PEG2k‑DBCO}-[Lys(N3)]RHCPWNCSLL; not fully specified; cysteine pairing not given here)”, in [9], the Kd is over 1 µM. In addition, in series [10] (CD19^− K562 labeled with 100 nM amph-P1, CD19 CAR-T 5:1 E:T, triplicate samples), the “IFN-γ by ELISA” value was 79.6185 and 80.063 and 79.9889. Also, the “IFN-γ secretion from CD19 CAR-T cells (in words)” value in series [10] (K562 labeled with 100 nM amph-P1, 5:1 E:T) is recorded as “effectively triggered IFN-γ secretion from CD19 CAR-T cells but to a much lesser extent than NALM6 cells”. Besides, the “stimulation of control EGFRvIII CAR-T cells (in words)” value in [11] (K562 labeled with 100 nM amph-ligand, 5:1 E:T, 6 hours, IFN-γ ELISA) is listed as “failed to stimulate”. Besides, the “IFN-γ secretion, EGFRvIII-CAR-T with amph-labelled K562 (Fig 2I)” value came out at 128 in series [11] (replicate 1), 153 in [11] (replicate 2) and 104 in [11] (replicate 3). For the same substance, the “CAR-T cell proliferation (CTV dilution) in LNs (in words)” value in series [8] is listed as “no CAR-T cell proliferation”.
Take “amph-mimotopeF12 ({DSPE‑PEG2k‑DBCO}-[Lys(N3)]RICPWNCKEL; disulfide 4-8 (inferred))”: the “IFN-γ secretion, FMC63-mCAR-T with amph-labelled K562 (Fig 5B)” value is 739.091 in series [12] (replicate 1), 671.636 in [12] (replicate 2) and 771.636 in series [12] (replicate 3).
Turning to tisagenlecleucel, in [13] (after infusion, both cohorts (high ≥40%, n=40; low <40%, n=90), qPCR), the “median time to peak CAR-T expansion” value came out at 10 days. Moreover, the “probability of continued B-cell aplasia” value in series [13] (high tumor burden patients, 95% CI 55–95) stood at 72%; in [13] (low tumor burden patients, 95% CI 57–78) it was 67%. Moreover, the values for the peak of expansion in [14] (high tumor burden (n=23)) and in [14] (low tumor burden (n=6)) were 77,109 CAR19 copies/μg of DNA and 25,064 CAR19 copies/μg of DNA, respectively. Further, the CAR-T19 expansion in [15] (high disease burden (n=7)) was 35,857 CAR19 copies/μg of DNA; in series [15] (low tumor burden (n=30)) it was 18,718 CAR19 copies/μg of DNA.
